Test results: the CombiSolv-Exp solvation set (Vermeire and Green 2021)

Experiment: solvent given as SMILES

C1CCOC1
Settings	solvation free energy, 298 K [kcal/mol]
in CC(=O)N(C)C	-3.96
in CC(C)=O	-4.12
in CC(C)CC(C)(C)C	-3.72
in CC(C)CCCC(C)CCCC(C)CCCCC(C)CCCC(C)CCCC(C)C	-3.35
in CC(C)CCl	-4.2
in CC(C)O	-4.01
in CCC(C)Cl	-4.16
in CCCCCC	-3.68
in CCCCCCC	-3.7
in CCCCCCCC	-3.66
in CCCCCCCCCCCCCCCC	-3.43
in CCCCCCCCO	-3.9
in CCCCCl	-4.19
in CCCCN(C=O)CCCC	-3.89
in CCCCOCCCC	-3.8
in CCCCl	-4.31
in CCCO	-4.02
in CCN1CCCC1=O	-3.95
in CCN(CC)C(C)=O	-3.97
in CCNC(C)=O	-3.89
in CCNC=O	-3.93
in CCO	-4.09
in CCOC(C)=O	-4.11
in CN1CCCC1=O	-4.04
in CN1CCCCC1=O	-3.92
in CNC(C)=O	-3.87
in CO	-4.43
in CS(C)=O	-3.67
in ClC(Cl)(Cl)Cl	-4.28
in ClC(Cl)Cl	-5.12
in ClCCCl	-4.53
in NC=O	-3.69
in O	-3.49
in O=CN1CCOCC1	-3.7
in [2H]O[2H]	-3.5

c1ccc(Oc2ccccc2)cc1
Settings	solvation free energy, 298 K [kcal/mol]
in O	-2.87

C=C(C)C1CC=C(C)CCC=C(C)CC1 (centres undefined)
Settings	solvation free energy, 298 K [kcal/mol]
in O	-0.37

O=c1[nH]cc(Cl)c(=O)[nH]1
Settings	solvation free energy, 298 K [kcal/mol]
in O	-17.7

Clc1cc(Cl)c(Cl)cc1Cl
Settings	solvation free energy, 298 K [kcal/mol]
in CCCCCCCCO	-7.67
in O	-1.34

CCNc1nc(Cl)nc(NC(C)C)n1
Settings	solvation free energy, 298 K [kcal/mol]
in O	-9.69

CN1CCCC1c1cccnc1 (centres undefined)
Settings	solvation free energy, 298 K [kcal/mol]
in O	-7.98

COC(=O)C1CC1
Settings	solvation free energy, 298 K [kcal/mol]
in O	-4.1

[N]=O
Settings	solvation free energy, 298 K [kcal/mol]
in CC#N	0.63
in CCCCCC	0.47
in CCO	0.81
in CCOC(C)=O	0.55
in CCOCC	0.34
in CO	0.62
in Cc1cccc(C)c1	0.79
in Cc1ccccc1	0.76
in ClC(Cl)(Cl)Cl	0.62

CC1CCCC(C)(C)C1 (centres undefined)
Settings	solvation free energy, 298 K [kcal/mol]
in O	2.23

c1ccc2cc3c(ccc4ccccc43)cc2c1
Settings	solvation free energy, 298 K [kcal/mol]
in O	-6.26

CCCCCOC(C)=O
Settings	solvation free energy, 298 K [kcal/mol]
in CCCCCC	-5.57
in CCCCCCC	-5.48
in CCCCCCCC	-5.42
in CCCCCCCCCC	-5.37
in CCCCCCCCCCCCCCCC	-5.24
in CCCCCCCCO	-5.61
in NC=O	-4.32
in O	-2.48
in [2H]O[2H]	-2.55

Clc1c(Cl)c(Cl)c(-c2c(Cl)c(Cl)c(Cl)c(Cl)c2Cl)c(Cl)c1Cl
Settings	solvation free energy, 298 K [kcal/mol]
in CCCCCCCCC=CCCCCCCCC(=O)OCC(COC(=O)CCCCCCCC=CCCCCCCCC)OC(=O)CCCCCCCC=CCCCCCCCC	-14.6
in O	-3.05

COC(=O)C(F)(F)F
Settings	solvation free energy, 298 K [kcal/mol]
in O	-1.1

CCCCCCCC
Settings	solvation free energy, 298 K [kcal/mol]
in Brc1ccccc1	-5.05
in C1CCCCC1	-5.54
in C1CCOC1	-5.32
in C1COCCO1	-4.49
in C=CCCCC	-5.39
in C=CCCCCCC	-5.28
in C=CCCCCCCCC	-5.23
in CC1COC(=O)O1	-3.01
in CC#N	-3.63
in CC(=O)N(C)C	-3.96
in CC(=O)O	-3.96
in CC(=O)c1ccccc1	-4.29
in CC(C)(C)O	-4.62
in CC(C)=O	-4.41
in CC(C)CC(C)(C)C	-5.32
in CC(C)CCCC(C)CCCC(C)CCCCC(C)CCCC(C)CCCC(C)C	-4.83
in CC(C)CCO	-4.61
in CC(C)O	-4.4
in CC(C)OC(C)C	-5.29
in CC(Cl)Cl	-4.66
in CC(O)CO	-2.84
in CCBr	-5.39
in CCC(C)(C)OC	-5.28
in CCC(C)=O	-4.69
in CCCC#N	-4.33
in CCCC(=O)OCC	-4.94
in CCCC(C)=O	-4.81
in CCCCC	-5.43
in CCCCC(CC)COC(=O)CCCCC(=O)OCC(CC)CCCC	-4.69
in CCCCC(CC)COC(=O)c1ccccc1C(=O)OCC(CC)CCCC	-4.43
in CCCCCC	-5.42
in CCCCCC(C)=O	-4.83
in CCCCCCC	-5.37
in CCCCCCCCC	-5.23
in CCCCCCCCC=CCCCCCCCC(=O)OCC(COC(=O)CCCCCCCC=CCCCCCCCC)OC(=O)CCCCCCCC=CCCCCCCCC	-4.75
in CCCCCCCCCC	-5.2
in CCCCCCCCCCCC	-5.11
in CCCCCCCCCCCCCCCC	-5.01
in CCCCCCCCCCCCO	-4.65
in CCCCCCCCCCO	-4.53
in CCCCCCCCO	-4.62
in CCCCCCOC(C)=O	-4.92
in CCCCCO	-4.62
in CCCCO	-4.49
in CCCCOC(=O)c1ccccc1C(=O)OCCCC	-4.5
in CCCCOC(C)=O	-4.85
in CCCCOCCCC	-5.25
in CCCO	-4.41
in CCN1CCCC1=O	-4.09
in CCN(CC)C(C)=O	-4.35
in CCN(CC)CC	-5.5
in CCNC(C)=O	-4.09
in CCNC=O	-3.79
in CCO	-4.3
in CCOC(=O)c1ccccc1C(=O)OCC	-3.95
in CCOC(C)=O	-4.71
in CCOCC	-5.41
in CCOCCOCCOCC	-4.65
in CCOc1ccccc1	-4.77
in CN1CCCC1=O	-3.77
in CN1CCCCC1=O	-4.02
in CN(C)C=O	-3.75
in CN(C)P(=O)(N(C)C)N(C)C	-4.26
in CNC=O	-3.34
in CO	-3.86
in COC(C)=O	-4.49
in COCCO	-3.76
in COCCOCCOCCOCCOC	-4.01
in COc1ccccc1	-4.7
in CS(C)=O	-2.79
in Cc1ccc(C)cc1	-5.28
in Cc1cccc(C)n1	-4.92
in Cc1cccc(O)c1	-4.08
in Cc1ccccc1	-5.29
in Cc1ccccn1	-4.78
in ClC(Cl)(Cl)Cl	-5.45
in ClC(Cl)Cl	-5.32
in ClCCCl	-4.71
in ClCCl	-5.08
in Clc1ccccc1	-5.21
in FC(F)(F)C(F)(F)C(F)(F)C(F)(F)C(F)(F)C(F)(F)C(F)(F)C(F)(F)F	-3.45
in FC(F)(F)C(F)(F)C(F)(F)C(F)(F)C(F)(F)C(F)(F)F	-3.52
in Fc1c(F)c(F)c(F)c(F)c1F	-4.83
in Fc1ccccc1	-5.11
in ICI	-3.3
in Ic1ccccc1	-4.74
in N#CCCCCC#N	-2.96
in NC=O	-1.27
in NCCO	-1.74
in Nc1ccccc1	-3.52
in O=C1CCCCC1	-4.63
in O=C1CCCO1	-3.22
in O=CN1CCOCC1	-3.04
in OCCCCCO	-3.06
in OCCCCO	-2.87
in OCCCO	-2.59
in OCCOCCO	-2.35
in OCCOCCOCCOCCO	-2.71
in OCc1ccccc1	-3.81
in S=C=S	-5.53
in c1ccc2ncccc2c1	-4.22
in c1ccc(COCc2ccccc2)cc1	-4.28
in c1ccccc1	-5.25
in c1ccncc1	-4.49

O=C(Oc1ccccc1)c1ccccc1C(=O)Oc1ccccc1
Settings	solvation free energy, 298 K [kcal/mol]
in O	-11.6

CCCCC1CCCCC1
Settings	solvation free energy, 298 K [kcal/mol]
in CCC(C)=O	-5.97
in CCO	-5.65
in CN1CCCC1=O	-5.09
in O	1.96
in O=Cc1ccco1	-4.97
in OCCO	-2.38
in OCCOCCO	-3.78

COC(=O)c1ccc(Br)cc1
Settings	solvation free energy, 298 K [kcal/mol]
in CN(C)C=O	-9.25
in O	-4.26

OCC(O)C(O)C(O)CO (centres undefined)
Settings	solvation free energy, 298 K [kcal/mol]
in CC(C)O	-13.4
in CCCCO	-13.3
in CCO	-13.8
in CN(C)C=O	-15.4
in O	-16.6

C=CC(C)(CCC=C(C)C)OC(=O)CC (centres undefined)
Settings	solvation free energy, 298 K [kcal/mol]
in O	-3.26

COC(OC)(OC)c1ccccc1
Settings	solvation free energy, 298 K [kcal/mol]
in O	-4.04

ClCC(Cl)Cl
Settings	solvation free energy, 298 K [kcal/mol]
in CCCCCCCCO	-4.63
in ClC(Cl)(Cl)Cl	-5.06
in ClC(Cl)Cl	-5.28
in ClCCCl	-5.47
in O	-1.99

CCC(C)(O)C(C)C (centres undefined)
Settings	solvation free energy, 298 K [kcal/mol]
in CCCCCCCC	-5.4
in CCCCCCCCCC	-5.34
